# In patent US20260258036A1, “INHIBITORS OF HUMAN ALDOSTERONE SYNTHASE (CYP11B2)” («TARGET MEDICALS» LIMITED LIABILITY COMPANY, priority 2022, published 2026):
# Biological target: T1, recombinant CYP11B2 (Homo sapiens, UniProt P19099)
# T1 sequence (P19099 25-503): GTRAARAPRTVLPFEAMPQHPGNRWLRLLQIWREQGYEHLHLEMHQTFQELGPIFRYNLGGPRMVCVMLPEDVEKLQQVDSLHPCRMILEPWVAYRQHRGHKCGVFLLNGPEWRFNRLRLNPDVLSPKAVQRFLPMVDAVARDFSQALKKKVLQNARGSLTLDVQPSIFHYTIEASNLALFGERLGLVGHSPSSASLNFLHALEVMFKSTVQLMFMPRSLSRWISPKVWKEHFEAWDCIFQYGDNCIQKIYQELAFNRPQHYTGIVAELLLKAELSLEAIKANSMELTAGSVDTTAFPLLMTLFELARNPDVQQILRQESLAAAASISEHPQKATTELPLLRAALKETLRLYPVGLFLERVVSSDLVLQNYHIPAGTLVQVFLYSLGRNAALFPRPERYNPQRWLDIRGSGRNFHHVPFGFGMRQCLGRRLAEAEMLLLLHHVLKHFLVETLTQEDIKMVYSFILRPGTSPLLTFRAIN
# Assay: Inhibition of CYP11B2 activity in a reconstructed enzyme system (HPLC with UV detector)
# Format: biochemical
# Conditions: compounds 1_xx; test compound final concentration ≤2 μM; corticosterone substrate; 30 minutes at 37° C.; read-out: Level of CYP11B2 activity inhibition
# Procedure: The authors of the present invention investigated the activity of the compounds according to the invention as inhibitors of CYP11 B2 when analyzed in a reconstructed system containing 0.5 μm recombinant CYP1 1B2, 0.3 μm human adrenodoxin reductase, 2 μm human adrenodoxin, 100 μm corticosterone as a control reaction to detect the formation of a product with using an HPLC system with a UV detector. The test compound is added to the reaction mixture to a final concentration of ≤2 μM. The concentrated protein mixture was diluted with buffer to a final volume of 0.5 ml, pre-incubated for 10 min at 37° C., followed by the addition of the substrate. Reactions are initiated by adding NADPH (nicotinamide adenine dinucleotide phosphate) to a final concentration of 0.25 mM with a regenerating system (glucose-6-phosphate and glucose-6-phosphate dehydrogenase) in 25 mM potassium phosphate buffer, pH 7.4, containing 0.1 mM DTT (dithiothreitol), 0.1% Tween-20.4 mM MgCl2 and incubated at 37° C. After 30 minutes of incubation, the reaction is stopped by adding 5 ml of dichloromethane. The organic phase is isolated by centrifugation, evaporation, dissolution in ethanol and transferred to a vial for HPLC studies. A C18 Luna 100 Å 250×4, 6 mm column was used on an Agilent Technologies 1200 series instrument (USA) with ethanol as the mobile phase.
# Activity (a) is calculated as the amount of product in nmol per minute per 1 nmol of CYP.
# where k is the correction factor (k=1 is used as the molar extinction coefficients of steroid substrates and products similar at a detection wavelength of 254 nm), As is the peak area of the substrate, cs is the concentration of the substrate, Ap is the peak area of the product, ce is the concentration of CYP (cytochrome P450), t is the reaction time.
# The level of inhibition of CYP11 B2 activity is expressed as a percentage, where 0% is defined as no inhibition in reactions without test compound and 100% is absolute inhibition by test compound.
row,inhibition at 2 µM [%],SMILES
1,50 to 100,"CN1CCN(c2c(F)cc(S(=O)(=O)N3CCc4c(-c5ccccn5)cncc43)cc2F)CC1 [Compound 1_17, 1-((3,5-difluoro-4-(4-methylpiperazin-1-yl)phenyl)sulfonyl)-4-(pyridin-2-yl)-2,3-dihydro-1H-pyrrolo[2,3-c]pyridine]"
2,50 to 100,"Cc1csc(N(C)c2c(F)cc(S(=O)(=O)n3ccc4c(-c5ccccn5)cncc43)cc2F)n1 [Compound 1_20, N-(2,6-difluoro-4-((4-(pyridin-2-yl)-1H-pyrrolo[2,3-c]pyridin-1-yl)sulfonyl)phenyl)-N,4-dimethylthiazol-2-amine]"
3,50 to 100,"O=S(=O)(c1cc(F)c(N2CCSCC2)c(F)c1)n1ccc2c(-c3ccccn3)cncc21 [Compound 1_23, 4-(2,6-difluoro-4-((4-(pyridin-2-yl)-1H-pyrrolo[2,3-c]pyridin-1-yl)sulfonyl)phenyl)thiomorpholine]"
4,50 to 100,"COc1c(C)cc(S(=O)(=O)n2ccc3c(-c4ccc(C)nn4)cncc32)cc1C [Compound 1_04, 1-(4-methoxy-3,5-dimethylphenyl)sulfonyl-4-(6-methylpyridazin-3-yl)pyrrolo[2,3-c]pyridine]"
5,50 to 100,"COc1c(C)cc(S(=O)(=O)n2ccc3c(-c4cnc(C)cn4)cncc32)cc1C [Compound 1_02, 1-((4-methoxy-3,5-dimethylphenyl)sulfonyl)-4-(5-methylpyrazin-2-yl)-1H-pyrrolo[2,3-c]pyridine]"
6,50 to 100,"COc1c(C)cc(S(=O)(=O)n2ccc3c(-c4ncc(C)cn4)cncc32)cc1C [Compound 1_03, 1-((4-methoxy-3,5-dimethylphenyl)sulfonyl)-4-(5-methylpyrimidin-2-yl)-1H-pyrrolo[2,3-c]pyridine]"
7,50 to 100,"O=S(=O)(c1cc(F)c(N2CCC3(CCNC3)C2)c(F)c1)n1ccc2c(-c3ccccn3)cncc21 (centres unmarked) [Compound 1_26, 2-(2,6-difluoro-4-((4-(pyridin-2-yl)-1H-pyrrolo[2,3-c]pyridin-1-yl)sulfonyl)phenyl)-2,7-diazaspiro[4.4]nonane]"
8,50 to 100,"CN1CCN(c2c(F)cc(S(=O)(=O)n3ccc4c(-c5ccccn5)cncc43)cc2F)CC1 [Compound 1_12, 1-((3,5-difluoro-4-(4-methylpiperazin-1-yl)phenyl)sulfonyl)-4-(pyridin-2-yl)-1H-pyrrolo[2,3-c]pyridine]"
9,50 to 100,"CN(C)c1c(F)cc(S(=O)(=O)n2ccc3c(-c4ccccn4)cncc32)cc1F [Compound 1_09, 2,6-difluoro-N,N-dimethyl-4-((4-(pyridin-2-yl)-1H-pyrrolo[2,3-c]pyridin-1-yl)sulfonyl)aniline]"
10,50 to 100,"COc1c(F)cc(S(=O)(=O)n2ccc3c(-c4ccccn4)cncc32)cc1F [Compound 1_18, 1-((3,5-difluoro-4-methoxyphenyl)sulfonyl)-4-(pyridin-2-yl)-1H-pyrrolo[2,3-c]pyridine]"
11,50 to 100,"CN1CCC(Nc2c(F)cc(S(=O)(=O)n3ccc4c(-c5ccccn5)cncc43)cc2F)CC1 [Compound 1_21, N-(2,6-difluoro-4-((4-(pyridin-2-yl)-1H-pyrrolo[2,3-c]pyridin-1-yl)sulfonyl)phenyl)-1-methylpiperidin-4-amine]"
12,50 to 100,"CN1CCN(c2c(F)cc(S(=O)(=O)n3ccc4c(-c5ccc(C#N)nc5)cncc43)cc2F)CC1 [Compound 1_28, 5-(1-((3,5-difluoro-4-(4-methylpiperazin-1-yl)phenyl)sulfonyl)-1H-pyrrolo[2,3-c]pyridin-4-yl)picolinonitrile]"
13,1 to 100,"CNc1cnc(-c2cncc3c2ccn3S(=O)(=O)c2cc(F)c(N3CCN(C)CC3)c(F)c2)cn1 [Compound 1_30, 5-(1-((3,5-difluoro-4-(4-methylpiperazin-1-yl)phenyl)sulfonyl)-1H-pyrrolo[2,3-c]pyridin-4-yl)-N-methylpyrazin-2-amine]"

# Same assay, conditions: compounds 2_xx, 3_xx, 4_01; test compound final concentration ≤2 μM; corticosterone substrate; 30 minutes at 37° C.; read-out: Level of CYP11B2 activity inhibition
row,inhibition at 2 µM [%],SMILES
1,20 to 100,"O=S(=O)(c1cc(F)c(N2CC3(CNC3)C2)c(F)c1)n1ccc2c(-c3ccccn3)cncc21 [Compound 3_21, 1-((3,5-difluoro-4-(2,6-diazaspiro[3.3]heptan-2-yl)phenyl)sulfonyl)-4-(pyridin-2-yl)-1H-pyrrolo[2,3-c]pyridine]"
2,35 to 100,"CN1CCN(c2c(F)cc(S(=O)(=O)n3ccc4c(-c5ccc(C#N)nn5)cncc43)cc2F)CC1 [Compound 3_10, 6-(1-((3,5-difluoro-4-(4-methylpiperazin-1-yl)phenyl)sulfonyl)-1H-pyrrolo[2,3-c]pyridin-4-yl)pyridazine-3-carbonitrile]"
3,35 to 100,"CN1CCN(c2c(F)cc(S(=O)(=O)n3ccc4c(-c5ccccn5)cncc43)cc2F)CC1 [Compound 4_01, 1-((3,5-difluoro-4-(4-methylpiperazin-1-yl)phenyl)sulfonyl)-4-(pyridin-2-yl)-1H-pyrrolo[2,3-c]pyridine]"
4,35 to 100,"CN1CC2CN(c3c(F)cc(S(=O)(=O)n4ccc5c(-c6cnc(C#N)cn6)cncc54)cc3F)CC2C1 (centres unmarked) [Compound 3_23, 5-(1-((3,5-difluoro-4-(5-methylhexahydropyrrolo[3,4-c]pyrrol-2(1H)-yl)phenyl)sulfonyl)-1H-pyrrolo[2,3-c]pyridin-4-yl)pyrazine-2-carbonitrile]"
5,35 to 100,"CC(C)N1CCN(c2c(F)cc(S(=O)(=O)n3ccc4c(-c5ccccn5)cncc43)cc2F)CC1 [Compound 3_11, 1-((3,5-difluoro-4-(4-isopropylpiperazin-1-yl)phenyl)sulfonyl)-4-(pyridin-2-yl)-1H-pyrrolo[2,3-c]pyridine]"
6,35 to 100,"CN1CC2(C1)CN(c1c(F)cc(S(=O)(=O)n3ccc4c(-c5ccccn5)cncc43)cc1F)C2 [Compound 3_16, 1-((3,5-difluoro-4-(6-methyl-2,6-diazaspiro[3.3]heptan-2-yl)phenyl)sulfonyl)-4-(pyridin-2-yl)-1H-pyrrolo[2,3-c]pyridine]"
7,35 to 100,"CN1CCCN(c2c(F)cc(S(=O)(=O)n3ccc4c(-c5ccccn5)cncc43)cc2F)CC1 [Compound 3_13, 1-((3,5-difluoro-4-(4-methyl-1,4-diazepan-1-yl)phenyl)sulfonyl)-4-(pyridin-2-yl)-1H-pyrrolo[2,3-c]pyridine]"
8,35 to 100,"O=S(=O)(c1cc(F)c(N2CCCNCC2)c(F)c1)n1ccc2c(-c3ccccn3)cncc21 [Compound 3_14, 1-((4-(1,4-diazepan-1-yl)-3,5-difluorophenyl)sulfonyl)-4-(pyridin-2-yl)-1H-pyrrolo[2,3-c]pyridine]"
9,35 to 100,"CNc1ccc(-c2cncc3c2ccn3S(=O)(=O)c2cc(F)c(N3CCN(C)CC3)c(F)c2)nc1 [Compound 3_02, 6-(1-((3,5-difluoro-4-(4-methylpiperazin-1-yl)phenyl)sulfonyl)-1H-pyrrolo[2,3-c]pyridin-4-yl)-N-methylpyridin-3-amine]"
10,20 to 100,"O=S(=O)(c1cc(F)c(N2CCNCC2)c(F)c1)n1ccc2c(-c3ccccn3)cncc21 [Compound 3_01, 1-((3,5-difluoro-4-(piperazin-1-yl)phenyl)sulfonyl)-4-(pyridin-2-yl)-1H-pyrrolo[2,3-c]pyridine]"
11,35 to 100,"N#Cc1ccc(-c2cncc3c2ccn3S(=O)(=O)c2cc(F)c(N3CC4CNCC4C3)c(F)c2)cn1 (centres unmarked) [Compound 3_28, 5-(1-((3,5-difluoro-4-(hexahydropyrrolo[3,4-c]pyrrol-2(1H)-yl)phenyl)sulfonyl)-1H-pyrrolo[2,3-c]pyridin-4-yl)picolinonitrile]"

row,SMILES,inhibition at 2 µM [%]
1,"CN1CC2CC(C1)N2c1c(F)cc(S(=O)(=O)n2ccc3c(-c4ccccn4)cncc32)cc1F [Compound 3_18, 6-(2,6-difluoro-4-((4-(pyridin-2-yl)-1H-pyrrolo[2,3-c]pyridin-1-yl)sulfonyl)phenyl)-3-methyl-3,6-diazabicyclo[3.1.1]heptane]",35 to 100
2,"CN1CC2CCC(C1)N2c1c(F)cc(S(=O)(=O)n2ccc3c(-c4ccccn4)cncc32)cc1F [Compound 3_19, 1-((3,5-difluoro-4-(3-methyl-3,8-diazabicyclo[3.2.1]octan-8-yl)phenyl)sulfonyl)-4-(pyridin-2-yl)-1H-pyrrolo[2,3-c]pyridine]",35 to 100
